Data set [1] is classed as in vivo, soybean. The settings on record: delivered via the CRYSTAL GREEN particles. The method, then:
The procedure used for Bead #1 was repeated, using CRYSTAL GREEN® fertilizer and the pesticide used was 50% chlorantraniliprole insecticide treatment. Analysis of the amount of chlorantraniliprole for Bead #14 was determined to be 2.15 μg chlorantraniliprole per milligram of bead. Individual rhizotron growth chambers were used as the test apparatus as described before. Beads #13 and 14, or the control solutions were applied to the center area of the soil plug at about 4 mm depth. All the rhizotron chambers were then transferred to the growth room and fit to black utility boxes with precut 4-inch-depth notches located on the left and right rim of the boxes, allowing the chambers to set at about 90 degree upright position. […]
The rhizotrons were maintained in a growth chamber with controlled temperature and light with a 14-hour day/10-hour night diurnal cycle. […] The amount of water or nutrient used was recorded. Plant growth stages were also recorded and photographed periodically. […]
Plant leaflets were harvested 3 times at 24 days (R1 growth stage), 38 days (R4), and 49 days (R5.5) after planting for quantifying the pesticide concentrations. […] Each CPC was quantified by LC-MSMS method using electro-spray positive ionization mode. […] Remaining soil associated with the dried roots was removed and root weight was measured using an analytical balance.

Data set [2] is described as follows: Aerobic soil degradation of cyantraniliprole in loam soil. The class given is physicochemical. Particulars: 90 days, pH 5.7. Here is the method: Loam soil had 29% sand, 50% silt, and 21% clay with 2.9% organic matter and a pH of 5.7. […] Soil (20.0 to 50 g) was weighed into individual glass containers and moisture was adjusted to field moisture capacity at approximately 27% by weight by adding de-ionized water to the containers. Afterward, the containers were covered with breathable tape and pre-incubated inside a temperature-controlled incubator at 25° C. for 6 days. The tape allowed free oxygen exchange between the container headspace and ambient air while minimizing soil water loss due to evaporation. […] The incubator temperature was monitored by a digital thermometer and Hobo data logger, and soil water loss was monitored by weighing each sample container during the experiment. […] Soil moisture content was brought back to field capacity once every 1-2 weeks by adding de-ionized water equivalent to the amount of moisture that was lost, monitored by weighing each container every week.
At sampling intervals of 0, 3, 7, 14, 28, 56 and 90 days, three containers from each treatment were removed from the incubator, and the 5 cyantraniliprole-containing particles were collected and transferred to 100 mL polypropylene bottles for extraction. […] Cyantraniliprole was separated by HPLC and quantified by UV detection at 220 nm using an external calibration curve of an analytical standard.

The conditions of data set [3]: cited from earlier work.
Data set [4] can be described thus: Aerobic soil degradation of cyantraniliprole in Tama soil. It counts as physicochemical. Here is the method:
Aerobic soil degradation of cyantraniliprole in the various beads was determined versus a stock aqueous solution by following the changes in cyantraniliprole concentration over time.
Tama soil (clay-loam soil) was collected and stored in a refrigerator prior to use. […] Soil (10.0 to 68.3 grams) was weighted into glass jars or polypropylene vials and the moisture content was adjusted to 32.4% (Field capacity for this soil) by adding deionized water to the containers. The containers were covered with tape and pre-incubated inside a temperature controlled incubator at 25° C. for 4 days. […] The incubator temperature was monitored by a digital thermometer, and soil water loss was monitored by weighing each sample container during the experiment. […]
At sampling intervals of 0, 3, 7, 14, 21, 28, 35, 56, 100 and 120 days, three containers from each treatment were removed from the incubator, and the four cyantraniliprole-containing particles or pellets in each container were collected and transferred to 100 mL polypropylene bottles for extraction. […] After the overnight extraction, the extracts were allowed to settle and the supernatant was filtered through 0.4 μm pore size polypropylene filters and stored in a −20° C. freezer before quantifying cyantraniliprole. […]

Each structure is given as a SMILES string.

`CNC(=O)c1cc(Cl)cc(C)c1NC(=O)c1cc(Br)nn1-c1ncccc1Cl` [Chlorantraniliprole]: the “concentrations in leaf samples averaged from 24 to 49 days” value in data set [1] was found to be 0.097 μg/gram fresh leaves.

For the compound `CNC(=O)c1cc(C#N)cc(C)c1NC(=O)c1cc(Br)nn1-c1ncccc1Cl` [Control E, Cyantraniliprole], the “cyantraniliprole degraded by day 90” value in data set [2] is about 79%.

`CO/C=C(/C(=O)OC)c1ccccc1COc1cccc(C(F)(F)F)n1` [Picoxystrobin]: in data set [3], the water solubility is 3.25 milligrams/liter.

Turning to `CNC(=O)c1cc(C#N)cc(C)c1NC(=O)c1cc(Br)nn1-c1ncccc1Cl` [stock solution, cyantraniliprole], the “cyantraniliprole degraded by day 100” value in data set [4] (100 days, pH 5.8) is about 76%. Further, in data set [4] (Tama soil, 25° C., aerobic), the “half-life of biodegradation by soil microbes” value was “approximately 43 days”.

Values taken from US11864555B2, “Soil application of crop protection agents” (PIONEER HI-BRED INTERNATIONAL, INC., priority 2017, dated 2024).
